The nature of data set [1]: Pharmacokinetic study of standard-dose acute gout regimen 4.8 mg over 6 hours (Example 6). As to the method: This study was a single center, randomized, double-blind, double-dummy pharmacokinetic and exploratory ECG safety study.
Those randomized to moxifloxacin received 1×400 mg tablet.

For data set [2] the following is noted: metabolite after single and multiple 0.6 mg colchicine doses.
Procedure: Subjects received a light breakfast served 60 minutes following dose administration in the morning and the evening dose was administered 90 minutes after an evening meal on Days 15 through 24 only. […] Study periods were separated by a 14-day washout. Following the single dose and the last dose of the multiple dose regimen (beginning on the mornings of Day 1 and Day 25, respectively), blood samples were collected (6 mL each) from each subject within 1 hour prior to dosing and after dose administration at study hours 0.5, 1, 1.5, 2, 3, 4, 6, 8, 10, 12, and 24 (while confined) and 36, 48, 72, and 96 (on an outpatient basis).
The conditions of data set [3]: metabolite after low-dose colchicine 1.8 mg, all subjects.
Procedure: This study was a single-center, single-period, open-label pharmacokinetic study conducted in healthy subjects under fasting conditions.
Subjects received 2×0.6 mg tablets initially followed by 1×0.6 mg tablet 1 hour later.
The mark [4] stands for this setting: metabolite after standard-dose colchicine 4.8 mg over 6 hours, N = 8.
Setting [5] is: standard-dose colchicine 4.8 mg.

Read-outs that look alike come from different tables or passages of the source.

Consider `COc1cc2c(c(OC)c1O)-c1ccc(OC)c(=O)cc1[C@@H](NC(C)=O)CC2` [2-DMC, N-[(7S,12aS)-2-hydroxy-1,3,10-trimethoxy-9-oxo-5,6,7,9-tetrahydrobenzo[a]heptalen-7-yl]-acetamide], for which the 2-DMC plasma concentrations result in data set [1] (metabolite after standard-dose colchicine 4.8 mg, all subjects) is “below LOQ”; in data set [3] it was “below the LOQ”. For the same molecule, in data set [2], the “2-DMC plasma concentrations (all below LOQ)” value is reported as under 0.2 ng/mL.

For the molecule `COc1c(O)cc2c(c1OC)-c1ccc(OC)c(=O)cc1[C@@H](NC(C)=O)CC2` [3-DMC, N-[(7S,12aS)-3-hydroxy-1,2,10-trimethoxy-9-oxo-5,6,7,9-tetrahydrobenzo[a]heptalen-7-yl]-acetamide], in data set [1] (setting [4]), the “3-DMC AUC∞, mean” value turned out to be 4.84 ng·h/mL; the “3-DMC Ke, mean” value came to 0.1418 h⁻¹; the “3-DMC t1/2, mean” value is 6.93 h. Also, in data set [1] (metabolite after standard-dose colchicine 4.8 mg over 6 hours, N = 13), the “3-DMC AUC0-t, mean” value stood at 2.09 ng·h/mL. The “3-DMC Tmax, mean” value in data set [1] (metabolite after standard-dose colchicine 4.8 mg over 6 hours, N = 14) came to 5.06 h. The “3-DMC Cmax, mean” value in data set [1] (metabolite after standard-dose colchicine 4.8 mg over 6 hours, N = 15) is given as 0.32 ng/mL. In data set [1] (setting [5]), the “Mean 3-DMC AUC0-t as % of mean colchicine AUC0-t” value is about 2%, the “Mean 3-DMC AUC∞ as % of mean colchicine AUC∞” value was about 4.1% and the “Mean 3-DMC Cmax as % of mean colchicine Cmax” value is “approximately 4.7%”.

Source of the values: patent US7964647B2 (Mutual Pharmaceutical Company, Inc., priority 2007, dated 2011).
